Source: PMC10116596 (Biochemistry, 2023)

Biological target: LcrH1–168 (Yersinia pestis, UniProt P21207)
Assay type: binding, Y. pestis
Conditions: pH 7.8

LcrH1–168, sequence (P21207 whole entry, looked up): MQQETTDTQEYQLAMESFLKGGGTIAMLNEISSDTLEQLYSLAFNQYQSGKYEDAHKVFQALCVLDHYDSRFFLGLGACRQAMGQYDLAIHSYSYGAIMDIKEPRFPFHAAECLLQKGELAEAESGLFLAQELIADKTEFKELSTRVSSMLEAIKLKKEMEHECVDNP

| Substance | ΔH | –TΔS [kcal/mol] |
| --- | --- | --- |
| Ac-QVPELIKPSQ-NH2 [YopD56–65] | –51 ± 2 kJ/mol | 6.69 ± 0.48 |
| Ac-QGVQLPAPLA-NH2 [YopB48–57] | –44 ± 15 kJ/mol | 5.5 ± 3.59 |
